In brackets after ≈: the same amount, converted by molar mass. Non-standard residues stand in square brackets, D forms with d. Residues, ends and D or L forms follow the SMILES beside them. *: point of attachment. Palmitoyl = CCCCCCCCCCCCCCCC(=O)*; Myristoyl = CCCCCCCCCCCCCC(=O)*; Undecanoyl = CCCCCCCCCCC(=O)*; Lauroyl = CCCCCCCCCCCC(=O)*
Assays:
Type in all cases: cell-based
[1] = system: Aspergillus fumigatus ATCC 26430; assay: microbe, parasite or virus in culture; settings: for Minimal Inhibitory Concentration, A. fumigatus ATCC 26430: ATCC 26430, pH 7.4
[2] = system: Cryptococcus neoformans ATCC MYA-422; assay: microbe, parasite or virus in culture; settings: Table 17, D-magainin analog; mean of 3 experiments, standard deviation of 25%; read-out: Minimal Inhibitory Concentration, Cyrptococcus neoformans (ATCC MYA-422)
[3] = system: Candida albicans ATCC 10231; assay: microbe, parasite or virus in culture; settings: for MIC: ATCC 10231, read-out: Minimal Inhibitory Concentration, Candida Albicans (ATCC 10231); for Minimal Inhibitory Concentration, C. albicans ATCC 10231: ATCC 10231, pH 7.4
Description: (§1) The antifungal activity of the lipopeptides was examined in sterile 96-well plates (Nunc F96 microtiter plates) in a final volume of 200 μL as follows: 100 µl of a suspension containing fungi at a concentration of 1×10^4 Colony-Forming Units (CFU)/ml in culture medium (RPMI 1640, 0.165 M MOPS with L-glutamine, without NaHCO3) at pH 7.4 or pH 5.5 (adjustment of the pH was done by diluted solutions of HCl and NaOH) were added to 100 μl of water containing the peptide in serial 2-fold dilutions in water. The fungi were incubated in the presence of the lipopeptides for 24-48 h at 35° C. in a Binder KB115 incubator under agitation. Growth inhibition was determined by measuring the absorbance at 620 nm with a Microplate autoreader E1309 (Bio-Tek Instruments). Antifungal activity is expressed as the minimal inhibitory concentration (MIC), the concentration at which 100% inhibition of fungi growth was observed after the incubation time mentioned above. The fungi used were: Aspergillus niger ATCC 9642, Candida albicans ATCC 10231 and Cryptococcus neoformans ATCC 66031. If not indicated otherwise, the fungi growth was detected at pH 7.4.

[4] = system: human red blood cells (hRBC); assay: Hemolytic activity, release of hemoglobin at 540 nm
Description: Fresh human red blood cells (hRBC) with EDTA were rinsed 3 times with PBS (35 mM phosphate buffer/0.15 M NaCl, pH 7.3) by centrifugation for 10 min at 800 g and resuspended in PBS. Peptides dissolved in PBS were then added to 50 μl of a solution of the stock hRBC in PBS to reach a final volume of 100 μl (final erythrocyte concentration, 4% v/v). The resulting suspension was incubated under agitation for 60 min at 37° C. The samples were then centrifuged at 800×g for 10 min. Release of hemoglobin was monitored by measuring the absorbance of the supernatant at 540 nm. Controls for zero hemolysis (blank) and 100% hemolysis consisted of hRBC suspended in PBS and Triton 1%, respectively.

[5] = system: Escherichia coli ATCC 25922; settings: for Minimal Inhibitory Concentration, E. coli: ATCC 25922, pH 7.4
Description: (§2) The antibacterial activity of the lipopeptides was examined in sterile 96-well plates (Nunc F96 microtiter plates) in a final volume of 100 μl as follows: Aliquots (50 μl) of a suspension containing bacteria at concentration of 1×10^6 Colony-Forming Units (CFU)/ml in culture LB (Lauria broth) medium (pH 7.4 or pH 5.5) were added to 50 μl of water containing the lipopeptide in serial 2-fold dilutions in water. Adjustment of the pH was done by diluted solutions of HCl and NaOH Inhibition of growth was determined by measuring the absorbance at 600 nm with a Microplate autoreader E1309 (Bio-Tek Instruments), after an incubation time of 18-20 h at 37° C. Antibacterial activities were expressed as the minimal inhibitory concentration (MIC), the concentration at which 100% inhibition of growth was observed after 18-20 h of incubation. The bacteria used were: Escherichia coli ATCC 25922, Acinetobacter baumannii ATCC 19606, Pseudomonas aeruginosa ATCC 27853, Staphylococcus aureus ATCC 6538P, Enterococcus faecalis ATCC 29212, Enterobacter cloacae ATCC 49141. The antibacterial activity of lipopeptides was also examined against resistant bacteria: methicilin-resistant Staphylococcus aureus (MRSA) ATCC 700698 and vancomycin-resistant Enterococcus faecium (VRE) ATCC 700221. If not indicated otherwise, the bacterial growth was detected at pH 7.4.

[6] = system: Staphylococcus aureus ATCC 6538P; settings: for Minimal Inhibitory Concentration, S. aureus: ATCC 6538, pH 7.4
Description: as §2

[7] = system: Pseudomonas aeruginosa ATCC 27853; settings: for Minimal Inhibitory Concentration, P. Aeruginosa: ATCC 27853, pH 7.4
Description: as §2

[8] = system: B. subtilis ATCC 6051; settings: ATCC 6051
[9] = system: Cryptococcus neoformans ATCC 66031; assay: microbe, parasite or virus in culture; settings: ATCC 66031, pH 7.4
Description: as §1

[10] = system: Acinetobacter baumannii ATCC 19606; settings: ATCC 19606, pH 7.4
Description: as §2

[11] = system: Enterobacter cloacae ATCC 49141; settings: ATCC 49141, pH 7.4
Description: as §2

[12] = system: methicilin-resistant Staphylococcus aureus (MRSA) ATCC 700698; settings: for Minimal Inhibitory Concentration, S. aureus (MRSA): ATCC 700698, pH 7.4
Description: as §2

[13] = system: Enterococcus faecalis ATCC 29212; settings: ATCC 29212, pH 7.4
Description: as §2

| Structure (SMILES) | Minimal Inhibitory Concentration, Aspergillus fumigatus (ATCC 26430) [1] [µM] | MIC [2] [µM] | MIC [3] [µM] | % of Hemolytic activity at maximal MIC ([4]; human) [%] | Minimal Inhibitory Concentration, E. coli (ATCC 25922) [5] [µM] | Minimal Inhibitory Concentration, S. aureus ATCC 6538P [6] [µM] | Minimal Inhibitory Concentration, P. aeruginosa ATCC 27853 [7] [µM] | Minimal Inhibitory Concentration, B. subtilis (ATCC 6051) [8] [µM] | Minimal Inhibitory Concentration, A. fumigatus ATCC 26430 [1] [µM] | Minimal Inhibitory Concentration, C. neoformans ATCC 66031 [9] [µM] | Minimal Inhibitory Concentration, C. albicans ATCC 10231 [3] [µM] | Minimal Inhibitory Concentration, E. coli [5] [µM] | Minimal Inhibitory Concentration, A. Baumaannii [10] [µM] | Minimal Inhibitory Concentration, E. cloacae [11] [µM] | Minimal Inhibitory Concentration, S. aureus [6] [µM] | Minimal Inhibitory Concentration, S. aureus (MRSA) [12] [µM] | activity against MRSA ([12]; in words, summary of Table 4) | Minimal Inhibitory Concentration, P. Aeruginosa [7] [µM] | Minimal Inhibitory Concentration, E. faecalis [13] [µM] | hemolytic activity ([4]; up to a concentration of 25 μM, human red blood cells (FIGS. 6-7)) |
| --- | --- | --- | --- | --- | --- | --- | --- | --- | --- | --- | --- | --- | --- | --- | --- | --- | --- | --- | --- | --- |
| CCCCCCCCCCCCCCCC(=O)NCC(=O)N[C@H](C(=O)NCC(=O)N[C@@H](CCCCN)C(=O)N[C@@H](Cc1ccccc1)C(=O)N[C@H](CC(C)C)C(=O)N[C@@H](Cc1c[nH]cn1)C(=O)N[C@@H](CO)C(=O)N[C@@H](C)C(=O)N[C@H](CCCCN)C(=O)N[C@@H](CCCCN)C(=O)N[C@@H](Cc1c[nH]c2ccccc12)C(=O)NCC(=O)N[C@@H](CCCCN)C(=O)N[C@@H](C)C(=O)N[C@H](Cc1ccccc1)C(=O)N[C@H](C(=O)NCC(=O)N[C@H](CCC(=O)O)C(=O)N[C@H](C(=O)N[C@@H](CCSC)C(=O)N[C@@H](CC(N)=O)C(=O)N[C@@H](CO)C(N)=O)[C@@H](C)CC)C(C)C)[C@@H](C)CC [[D]4magainin-PA] (Palmitoyl-GIGKF[dL]HSA[dK]KWGKA[dF]VG[dE]IMNS-NH2) | >50 | 6.25 (≈ 17.1 µg/mL) | >50 | 8 | >50 | >50 | >50 | 50 | – | – | – | – | – | – | – | – | – | – | – | – |
| CCCCCCCCCCC(=O)N[C@@H](CCCCN)C(=O)N[C@@H](CC(C)C)C(=O)N[C@H](CC(C)C)C(=O)N[C@H](CC(C)C)C(=O)N[C@@H](CCCCN)C(=O)N[C@@H](CC(C)C)C(=O)N[C@@H](CC(C)C)C(=O)N[C@H](CC(C)C)C(=O)N[C@@H](CCCCN)C(=O)N[C@H](CC(C)C)C(=O)N[C@@H](CC(C)C)C(=O)N[C@@H](CCCCN)C(N)=O [lipopeptide 10, (CH3—(CH2)9—CO—)-Lys-Leu-D-Leu-D-Leu-Lys-Leu-Leu-D-Leu-Lys-D-Leu-Leu-Lys-NH2] (Undecanoyl-KL[dL][dL]KLL[dL]K[dL]LK-NH2) | – | – | – | – | – | – | – | – | 6.25 | 1.56 | 3.125 | 6.25 | 3.125 | 1.56 | 3.125 | 3.125 | highly active | 3.25 | 3.125 | – |
| CC[C@H](C)[C@H](NC(=O)CN)C(=O)NCC(=O)N[C@@H](CCCCN)C(=O)N[C@@H](Cc1ccccc1)C(=O)N[C@H](CC(C)C)C(=O)N[C@@H](Cc1c[nH]cn1)C(=O)N[C@@H](CO)C(=O)N[C@@H](C)C(=O)N[C@H](CCCCN)C(=O)N[C@@H](CCCCN)C(=O)N[C@@H](Cc1c[nH]c2ccccc12)C(=O)NCC(=O)N[C@@H](CCCCN)C(=O)N[C@@H](C)C(=O)N[C@H](Cc1ccccc1)C(=O)N[C@H](C(=O)NCC(=O)N[C@H](CCC(=O)O)C(=O)N[C@H](C(=O)N[C@@H](CCSC)C(=O)N[C@@H](CC(N)=O)C(=O)N[C@@H](CO)C(N)=O)[C@@H](C)CC)C(C)C [[D]4magainin, Gly-Ile-Gly-Lys-Phe-D-Leu-His-Ser-Ala-D-Lys-Lys-Trp-Gly-Lys-Ala-D-Phe-Val-Gly-D-Glu-Ile-Met-Asn-Ser-NH2, reference compound] (H-GIGKF[dL]HSA[dK]KWGKA[dF]VG[dE]IMNS-NH2; N-terminus assumed) | >50 | >50 | >50 | – | >50 | >50 | >50 | 50 | – | – | – | – | – | – | – | – | – | – | – | – |
| CCCCCCCCCCCCCC(=O)N[C@H](CCCCN)C(=O)NCC(=O)NCC(=O)NCC(=O)N[C@H](CCCCN)C(=O)NCC(=O)NCC(=O)NCC(=O)N[C@H](CCCCN)C(=O)NCC(=O)NCC(=O)N[C@H](CCCCN)C(N)=O [lipopeptide 1, (CH3—(CH2)12—CO—)-D-Lys-Gly-Gly-Gly-D-Lys-Gly-Gly-Gly-D-Lys-Gly-Gly-D-Lys-NH2] (Myristoyl-[dK]GGG[dK]GGG[dK]GG[dK]-NH2) | – | – | – | – | – | – | – | – | 6.25 | 6.25 | 3.125 | 12.5 | – | 3.125 | 6.25 | 6.25 | – | 6.25 | 3.125 | – |
| CCCCCCCCCCCCCCCC(=O)N[C@@H](CCCCN)C(=O)NCC(=O)NCC(=O)NCC(=O)N[C@@H](CCCCN)C(=O)NCC(=O)NCC(=O)NCC(=O)N[C@@H](CCCCN)C(=O)NCC(=O)NCC(=O)N[C@@H](CCCCN)C(N)=O [lipopeptide 4, (CH3—(CH2)14—CO—)-Lys-Gly-Gly-Gly-Lys-Gly-Gly-Gly-Lys-Gly-Gly-Lys-NH2] (Palmitoyl-KGGGKGGGKGGK-NH2) | – | – | – | – | – | – | – | – | 6.25 | 1.56 | 3.125 | 25 | 25 | 50 | 12.5 | 12.5 | – | 6.25 | 12.5 | – |
| CCCCCCCCCCCC(=O)N[C@H](CC(C)C)C(=O)N[C@@H](Cc1cnc[nH]1)C(=O)N[C@@H](Cc1cnc[nH]1)C(=O)N[C@H](CC(C)C)C(=O)N[C@H](CC(C)C)C(=O)N[C@@H](Cc1cnc[nH]1)C(=O)N[C@@H](Cc1cnc[nH]1)C(=O)N[C@H](CC(C)C)C(=O)N[C@H](CC(C)C)C(=O)N[C@@H](Cc1cnc[nH]1)C(=O)N[C@@H](Cc1cnc[nH]1)C(=O)N[C@H](CC(C)C)C(N)=O [lipopeptide 26, (CH3-(CH2)10-CO-)-D-Leu-His-His-D-Leu-D-Leu-His-His-D-Leu-D-Leu-His-His-D-Leu-NH2] (Lauroyl-[dL]HH[dL][dL]HH[dL][dL]HH[dL]-NH2) | – | – | – | – | – | – | – | – | – | – | – | – | – | – | – | – | – | – | – | do not exert hemolytic activity |

From patent US8445636B2, “Antimicrobial and anticancer lipopeptides” (Yeda Research & Development Co. Ltd., priority 2003, dated 2013)
